Patent publication US20070299072A1, “KV1.5 POTASSIUM CHANNEL INHIBITORS” (Wyeth, priority 2006, published 2007)

Legend:
Format in all cases: cell-based
Kv1.5 = biological target: T1, Kv1.5 (Homo sapiens, UniProt P22460); assay: Kv1.5 Patch Clamp EP (whole cell patch clamp; single point at 1 μM and IC50); conditions: for IC50: concentration response; for inhibition at 1 µM: single point at 1.0 μM, Kv1.5 stably over expressed in HEK or LTK- cells
T1 construct: expressed in transfected cells; host or cells: HEK or LTK- cells
T1 sequence (P22460 whole entry): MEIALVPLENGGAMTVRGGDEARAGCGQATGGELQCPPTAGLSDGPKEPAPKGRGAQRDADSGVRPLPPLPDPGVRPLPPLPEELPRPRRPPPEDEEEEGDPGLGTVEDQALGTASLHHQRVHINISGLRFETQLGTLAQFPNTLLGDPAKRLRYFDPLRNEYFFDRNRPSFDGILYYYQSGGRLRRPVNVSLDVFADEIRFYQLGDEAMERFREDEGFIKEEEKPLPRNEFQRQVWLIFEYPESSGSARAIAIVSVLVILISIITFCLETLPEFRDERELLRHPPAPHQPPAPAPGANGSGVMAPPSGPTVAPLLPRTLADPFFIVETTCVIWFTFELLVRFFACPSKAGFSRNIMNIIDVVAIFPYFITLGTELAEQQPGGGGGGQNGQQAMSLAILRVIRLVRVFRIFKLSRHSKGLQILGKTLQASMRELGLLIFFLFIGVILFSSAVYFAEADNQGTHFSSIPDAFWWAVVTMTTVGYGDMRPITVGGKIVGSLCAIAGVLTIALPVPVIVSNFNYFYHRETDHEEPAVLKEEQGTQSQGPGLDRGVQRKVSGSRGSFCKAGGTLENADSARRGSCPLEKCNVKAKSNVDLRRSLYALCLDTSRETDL
Protocol: The external solution is standard Tyrodes solution. […] Inhibition was measured at the end of the 1 second pulses and expressed relative to controls. Initial Kv1.5 inhibition is estimated by single point determinations done at 1 μM.

HERG = biological target: T2, HERG (Homo sapiens, UniProt Q12809); assay: HERG Patch Clamp EP (whole cell patch clamp, tail currents; single point at 10 μM and IC50); conditions: for IC50: concentration response; for inhibition at 10 µM: human, HEK cells stably overexpressing HERG, single point at 10 μM, HERG in HEK cells, read-out: HERG % Inhib. @ 10 μM
T2 construct: expressed in transfected cells; host or cells: HEK cells
T2 sequence (Q12809 whole entry): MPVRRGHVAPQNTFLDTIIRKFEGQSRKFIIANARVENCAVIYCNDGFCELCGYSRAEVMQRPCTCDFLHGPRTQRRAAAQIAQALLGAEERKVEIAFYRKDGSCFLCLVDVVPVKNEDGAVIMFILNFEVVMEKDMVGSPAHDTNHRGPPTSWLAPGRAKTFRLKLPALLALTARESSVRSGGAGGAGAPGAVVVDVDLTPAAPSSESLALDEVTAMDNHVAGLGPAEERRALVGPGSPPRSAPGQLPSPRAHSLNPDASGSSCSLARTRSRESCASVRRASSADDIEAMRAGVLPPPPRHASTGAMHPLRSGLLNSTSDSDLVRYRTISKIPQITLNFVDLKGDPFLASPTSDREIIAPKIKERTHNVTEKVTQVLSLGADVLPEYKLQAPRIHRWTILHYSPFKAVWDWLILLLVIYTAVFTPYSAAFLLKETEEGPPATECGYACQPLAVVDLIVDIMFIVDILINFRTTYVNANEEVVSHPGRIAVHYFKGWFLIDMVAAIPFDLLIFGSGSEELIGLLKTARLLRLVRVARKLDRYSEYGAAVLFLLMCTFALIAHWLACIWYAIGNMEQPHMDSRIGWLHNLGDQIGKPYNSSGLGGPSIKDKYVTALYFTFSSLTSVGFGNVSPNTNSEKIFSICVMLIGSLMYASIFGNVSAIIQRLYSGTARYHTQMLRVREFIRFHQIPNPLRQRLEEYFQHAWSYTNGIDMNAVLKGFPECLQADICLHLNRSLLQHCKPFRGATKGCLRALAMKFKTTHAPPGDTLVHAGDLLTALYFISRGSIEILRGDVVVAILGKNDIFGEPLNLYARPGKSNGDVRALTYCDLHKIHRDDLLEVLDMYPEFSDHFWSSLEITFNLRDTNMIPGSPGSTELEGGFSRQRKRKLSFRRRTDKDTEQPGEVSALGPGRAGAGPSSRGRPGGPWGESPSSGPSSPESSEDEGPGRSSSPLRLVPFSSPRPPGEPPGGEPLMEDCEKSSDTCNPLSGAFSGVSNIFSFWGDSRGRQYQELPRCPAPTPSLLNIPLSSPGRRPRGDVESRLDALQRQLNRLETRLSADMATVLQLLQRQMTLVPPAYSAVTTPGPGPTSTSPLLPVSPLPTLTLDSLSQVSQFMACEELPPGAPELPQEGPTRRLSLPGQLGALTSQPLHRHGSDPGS
Description: The external solution is standard Tyrodes solution.

L-type calcium channels = assay: FLIPR L-type Calcium Channel Assay (calcium influx in HL-1 cells after KCl); conditions: read-out: L-type Ca2+ IC50
Protocol: HL-1 cells expressing endogenous L-type calcium channels are removed from culture flasks using trypsin, plated on fibronectin/gelatin-coated, clear-bottomed, black-walled 96-well microplates in Claycomb media (JRH Biosciences #51800) containing 10% fetal bovine serum, 4 mM L-glutamine, and 10 μM norepinephrine, and grown to confluency overnight. The next day, growth medium is aspirated from confluent cell monolayers and replaced with 100 μL per well Tyrode's solution (in mM: 130 NaCl, 4 KCl, 1.8 CaCl2, 1.0 MgCl2, 20 HEPES, 10 glucose, pH 7.35) and 50 μL per well FLIPR Calcium Assay kit, component A (#R-8033, Molecular Devices Corporation) and incubated for 60 min. in a 5% CO2 37° C. incubator. 50 μL per well test compounds are added to the plates and further incubated for 15 min. in a 5% CO2 37° C. incubator. All final solutions contain the anion exchange inhibitor, probenecid (2.5 mM). The 96-well plates are then placed in the center position of the FLIPR 1 (Fluorometric Imaging Plate Reader, Molecular Devices Corporation). Cell monolayers in each well are simultaneously illuminated at 488 nm with an Argon ion laser, and fluorescence emission is monitored using a 510-570 nm bandpass filter and a cooled CCD camera. To depolarize the plasma membrane and activate L-type calcium channels, 50 μL per well of 20 mM KCl (final concentration) are dispensed simultaneously to all 96 wells using the FLIPR's automatic 96-well pipettor. Fluorescence measurements are captured for 5 min. following KCl addition. Calcium influx, expressed as % control, is calculated for each concentration of test compound and concentration-response curves and IC50 values are generated using GraphPad Prism 4.0.

SMILES	IC50 (Kv1.5) [µM]	inhibition at 1 µM (Kv1.5) [%]	IC50 (HERG) [µM]	inhibition at 10 µM (HERG) [%]	IC50 (L-type calcium channels) [µM]
CN1C(c2ccc(C3CC3)cc2)N(CCCc2ccccc2)C(=O)C12CCN(C(N)=O)CC2 (stereo not shown) [Compound 49, 2-(4-Cyclopropylphenyl)-1-methyl-4-oxo-3-(3-phenylpropyl)-1,3,8-triazaspiro-[4.5]decane-8-carboxylic acid amide]	0.321	86	7.7	67	14
CN1C(c2ccc(C(C)(C)C)cc2)N(CCCc2ccccc2)C(=O)C12CCN(C(N)=O)CC2 (stereo not shown) [Compound 50, 2-(4-tert-Butylphenyl)-1-methyl-4-oxo-3-(3-phenylpropyl)-1,3,8-triazaspiro-[4.5]decane-8-carboxylic acid amide]		72		37	16
CC(C)NC(=O)N1CCC2(CC1)C(=O)N(CCCc1ccccc1)C(c1ccc(C3CC3)cc1)N2C (stereo not shown) [Compound 52, 2-(4-Cyclopropylphenyl)-1-methyl-4-oxo-3-(3-phenylpropyl)-1,3,8-triazaspiro-[4.5]decane-8-carboxylic acid isopropyl amide]		89		79	12
CN(C)C(=O)N1CCC2(CC1)C(=O)N(CCCc1ccccc1)C(c1ccc(C3CC3)cc1)N2C (stereo not shown) [Compound 53, 2-(4-Cyclopropylphenyl)-1-methyl-4-oxo-3-(3-phenylpropyl)-1,3,8-triazaspiro-[4.5]decane-8-carboxylic acid dimethylamide]		93		77	4.5
CN1C(c2ccc(C3CC3)cc2)N(CCCc2ccccc2)C(=O)C12CCN(S(C)(=O)=O)CC2 (stereo not shown) [Compound 54, 2-(4-Cyclopropylphenyl)-8-methanesulfonyl-1-methyl-3-(3-phenylpropyl)-1,3,8-triazaspiro-[4.5]decan-4-one]	0.266	88	4.9	53	18
COc1ccc(CCN2C(=O)C3(CCN(CC(N)=O)CC3)N(C)C2c2ccc(C3CC3)cc2)cc1 (stereo not shown) [Compound 55, 2-{2-(4-Cyclopropylphenyl)-3-[2-(4-methoxyphenyl)ethyl]-1-methyl-4-oxo-1,3,8-triaza-spiro[4.5]dec-8-yl}acetamide]		64		71	8
COc1ccc(CCN2C(=O)C3(CCN(C(N)=O)CC3)N(C)C2Cc2ccc(C(C)(C)C)cc2)cc1 (stereo not shown) [Compound 58, 2-(4-tert-Butylbenzyl)-3-[2-(4-methoxyphenyl)ethyl]-1-methyl-4-oxo-1,3,8-triazaspiro[4.5]decane-8-carboxylic acid amide]	0.25	92	4.4	68	12
COc1ccc(CCN2C(=O)C3(CCN(C(=O)OC(C)(C)C)CC3)NC2c2ccc(OC(F)F)cc2)cc1 (stereo not shown) [Compound 62, 2-(4-Difluoromethoxyphenyl)-3-[2-(4-methoxyphenyl)ethyl]-4-oxo-1,3,8-triaza-spiro[4.5]decane-8-carboxylic acid tert-butyl ester]	0.257	93	4.6	62	7.8
COc1ccc(CCN2C(=O)C3(CCN(S(C)(=O)=O)CC3)NC2c2ccc(C(C)(C)C)cc2)cc1 (stereo not shown) [Compound 63, 2-(4-tert-Butylphenyl)-8-methanesulfonyl-3-[2-(4-methoxyphenyl)ethyl]-1,3,8-triaza-spiro[4.5]decan-4-one]		73		40	3
COc1ccc(CCN2C(=O)C3(CCN(C(=NC#N)Oc4ccccc4)CC3)N(C)C2c2ccc(OC)cc2)cc1 (stereo not shown) [Compound 67, 8-(phenyl-N-cyano-1-carbimidate)-2-(4-methoxyphenyl)-3-[2-(4-methoxyphenyl)ethyl]-1-methyl-1,3,8-triaza-spiro[4.5]decan-4-one]		91		80	10
COC(=O)N1CCC2(CC1)NC(c1ccc(C3CC3)cc1)N(CCc1ccc(OC)cc1)C2=O (stereo not shown) [Compound 75, Methyl 2-(4-cyclopropylphenyl)-3-[2-(4-methoxyphenyl)ethyl]-4-oxo-1,3,8-triazaspiro[4.5]decane-8-carboxylate]		94		2	19
COc1ccc(CCN2C(=O)C3(CCN(C(=O)NN)CC3)N(C)C2c2ccc(C3CC3)cc2)cc1 (stereo not shown) [Compound 80, 2-(4-cyclopropylphenyl)-3-[2-(4-methoxyphenyl)ethyl]-1-methyl-4-oxo-1,3,8-triazaspiro[4.5]decane-8-carbohydrazide]		74		24	19
CCCCC(=O)N1CCC2(CC1)C(=O)N(CCc1ccc(OC)cc1)C(c1ccc(OC(F)F)cc1)N2C (stereo not shown) [Compound 81, 2-[4-(difluoromethoxy)phenyl]-3-[2-(4-methoxyphenyl)ethyl]-1-methyl-8-pentanoyl-1,3,8-triazaspiro[4.5]decan-4-one]		80		95	9
COc1ccc(CCN2C(=O)C3(CCN(C(=O)C4CCCC4)CC3)N(C)C2c2ccc(OC(F)F)cc2)cc1 (stereo not shown) [Compound 82, 8-(cyclopentylcarbonyl)-2-[4-(difluoromethoxy)phenyl]-3-[2-(4-methoxyphenyl)ethyl]-1-methyl-1,3,8-triazaspiro[4.5]decan-4-one]		88		90	7
COc1ccc(CCN2C(=O)C3(CCN(C(=O)C4CC4)CC3)N(C)C2c2ccc(CC(C)C)cc2)cc1 (stereo not shown) [Compound 83, 8-(cyclopropylcarbonyl)-2-(4-isobutylphenyl)-3-[2-(4-methoxyphenyl)ethyl]-1-methyl-1,3,8-triazaspiro[4.5]decan-4-one]		93		84	6.8
COc1ccc(CCN2C(=O)C3(CCN(C(=O)OC(C)(C)C)CC3)N(C)C2c2ccc(CC(C)C)cc2)cc1 (stereo not shown) [Compound 85, tert-butyl 2-(4-isobutylphenyl)-3-[2-(4-methoxyphenyl)ethyl]-1-methyl-4-oxo-1,3,8-triazaspiro[4.5]decane-8-carboxylate]		85		3	6.7
COc1ccc(CCN2C(=O)C3(CCN(CC(=O)N(C)C)CC3)N(C)C2c2ccc(C3CC3)cc2)cc1 (stereo not shown) [Compound 89, 2-{2-(4-cyclopropylphenyl)-3-[2-(4-methoxyphenyl)ethyl]-1-methyl-4-oxo-1,3,8-triazaspiro[4.5]dec-8-yl}-N,N-dimethylacetamide]	0.273	94	12	43	12
COc1ccc(CCN2C(=O)C3(CCN(C(=O)n4ccnc4)CC3)N(C)C2c2ccc(C3CC3)cc2)cc1 (stereo not shown) [Compound 91, 2-(4-cyclopropylphenyl)-8-(1H-imidazol-1-ylcarbonyl) —3-[2-(4-methoxyphenyl)ethyl]-1-methyl-1,3,8-triazaspiro[4.5]decan-4-one]		87		72	13
COc1ccc(CCN2C(=O)C3(CCN(S(C)(=O)=O)CC3)N(C(=O)C(F)(F)F)C2c2ccc(C3CC3)cc2)cc1 (stereo not shown) [Compound 92, 2-(4-cyclopropylphenyl)-3-[2-(4-methoxyphenyl)ethyl]-8-(methylsulfonyl)-1-(trifluoroacetyl)-1,3,8-triazaspiro[4.5]decan-4-one]		81		73	14
COc1ccc(CCN2C(=O)C3(CCN(C(=O)OC(C)(C)C)CC3)NC2Cc2ccc(C(C)(C)C)cc2)cc1 (stereo not shown) [Compound 96, 2-(4-tert-butylbenzyl)-3-[2-(4-methyoxyphenyl)ethyl]-4-oxo-1,3,8-triaza-spiro[4.5]decane-8-carboxylic acid tert-butyl ester]	0.393	96		12	12
COc1ccc(CCN2C(=O)C3(CCN(C(N)=O)CC3)N(C)[C@@H]2c2ccc(C3CC3)cc2)cc1 [Compound 98, (S)-2-(4-cyclopropylphenyl)-3-[2-(4-methoxyphenyl)ethyl]-1-methyl-4-oxo-1,3,8-triaza-spiro[4.5]decane-8-carboxylic acid amide]	0.32	90	13	13	13
